Test results as given in patent publication US20200268768A1, “CENICRIVIROC COMBINATION THERAPY FOR THE TREATMENT OF FIBROSIS” (Tobira Therapeutics, Inc., priority 2015, published 2020).
Where a name gives a salt, the structure may show the parent alone.

Tests used:
[1] = Solubility of cenicriviroc mesylate; assay type: physicochemical
[2] = system: HIV-1 infected adult subjects; assay: Study 202 biomarkers of inflammation; assay type: in vivo, human; settings: EFV 600 mg
Method: As an exploratory analysis, levels of inflammation biomarkers MCP-1, sCD14, high sensitivity C-reactive protein [hs-CRP], interleukin-6 [IL-6], D-dimer, and fibrinogen) were measured. Baseline values and changes from baseline at Week 24 and Week 48 of MCP-1, sCD14, hs-CRP, IL-6, D-dimer, and fibrinogen are summarized in Table 22.
The sCD14 samples were originally analyzed in 2 separate batches: Batch 1 included samples leading up to the Week 24 primary analysis and Batch 2 included Week 32 and Week 48 (end of study) samples. A repeat analysis of archived samples all analyzed in one batch was conducted for consistency in analysis across time points. To control for the effects of covariates, a linear mixed-model repeated-measures analysis was conducted on the changes from baseline in sCD14 (analysis dated September 2013).

[3] = system: adults with CCR5 tropic HIV-1; assay: Study 202 post-hoc APRI and FIB-4 fibrosis index scores; assay type: in vivo, human
Method: APRI and FIB-4 scores were calculated. Change in score category from baseline (BL) to Weeks 24 and 48 was assessed in patients with non-missing data. Correlations between changes from BL in APRI and FIB-4 scores, and MCP-1 (CCR2 ligand) and sCD14 (inflammatory biomarker) levels were evaluated.

[4] = Week 24, CVC pooled 100 and 200 mg, or EFV
[5] = Week 48, CVC pooled 100 and 200 mg, or EFV

## CCCCOCCOc1ccc(-c2ccc3c(c2)C=C(C(=O)Nc2ccc([S@@+]([O-])Cc4cncn4CCC)cc2)CCCN3CC(C)C)cc1 [cenicriviroc mesylate, (S)-8-[4-(2-Butoxyethoxy)phenyl]-1-isobutyl-N-(4-{[(1-propyl-1H-imidazol-5-yl)methyl]sulfinyl}phenyl)-1,2,3,4-tetrahydro-1-benzazocine-5-carboxamide monomethanesulfonoate]
[1]; aqueous solution at pH 3
  Solubility: sparingly soluble
[1]; aqueous solution from pH 1 to 2
  Solubility: freely soluble
[1]; aqueous solution from pH 4 to 13 and in water
  Solubility: practically insoluble
[1]; in 99.5% ethanol
  Solubility: sparingly soluble
[1]; in acetonitrile, 1-octanol, tetrahydrofuran
  Solubility: slightly soluble
[1]; in ethyl acetate and diethylether
  Solubility: practically insoluble
[1]; in glacial acetic acid, methanol, benzyl alcohol, dimethylsulfoxide, N,N-dimethylformamide
  Solubility: freely soluble
[1]; in pyridine and acetic anhydride
  Solubility: soluble

## O=C1Nc2ccc(Cl)cc2[C@@](C#CC2CC2)(C(F)(F)F)O1 [EFV, efavirenz, reference compound]
[2]; Week 12
  sCD14 (original values) change from baseline, mean: 90000 pg/mL
  sCD14 (original values) change from baseline, median: 180000 pg/mL
[2]; Week 24
  D-dimer change from baseline, mean: -53 ng/mL
  D-dimer change from baseline, median: -26 ng/mL
  Fibrinogen change from baseline, mean: -28 mg/dL
  Fibrinogen change from baseline, median: -31 mg/dL
  IL-6 change from baseline, mean: -8.72 pg/mL
  IL-6 change from baseline, median: 0.00 pg/mL
  MCP-1 change from baseline, mean: -44 pg/mL
  MCP-1 change from baseline, median: -17 pg/mL
  hs-CRP change from baseline, mean: -0.46 mg/dL
  hs-CRP change from baseline, median: -0.01 mg/dL
  sCD14 (original values) change from baseline, mean: 230000 pg/mL
  sCD14 (original values) change from baseline, median: 130000 pg/mL
[2]; Week 32
  sCD14 (original values) change from baseline, mean: 480000 pg/mL
  sCD14 (original values) change from baseline, median: 170000 pg/mL
[2]; Week 48
  D-dimer change from baseline, mean: -34 ng/mL
  D-dimer change from baseline, median: 0.0 ng/mL
  Fibrinogen change from baseline, mean: -30 mg/dL
  Fibrinogen change from baseline, median: -22 mg/dL
  IL-6 change from baseline, mean: -13.11 pg/mL
  IL-6 change from baseline, median: 0.00 pg/mL
  MCP-1 change from baseline, mean: 4.2 pg/mL
  MCP-1 change from baseline, median: 33.6 pg/mL
  hs-CRP change from baseline, mean: -0.71 mg/dL
  hs-CRP change from baseline, median: -0.03 mg/dL
  sCD14 (original values) change from baseline, median: 460000 pg/mL
[3]; EFV arm, all subjects <1.45 at baseline
  Subjects with decrease in FIB-4 score by one category: no subject treated with EFV decreased in FIB-4 score by one category
[3]; [4]
  Subjects in APRI category <0.5: 100%
  Subjects in FIB-4 category <1.45: 100%
  Subjects with APRI decreased 1 category from baseline: 5%
[3]; [5]
  Subjects in APRI category <0.5: 100%
  Subjects in FIB-4 category 1.45-3.25: 6%
  Subjects in FIB-4 category <1.45: 94%
  Subjects with APRI decreased 1 category from baseline: 6%
